From PMC7738880, “Identification of novel CD44v6-binding peptides that block CD44v6 and deliver a pro-apoptotic peptide to tumors to inhibit tumor growth and metastasis in mice” (Theranostics, 2021) come the findings set out here.

Residues, ends and D or L forms follow the SMILES beside them.

The target of experiment [1] is T1, CD44v6 from MDA-MB231 cell lysates (Homo sapiens, UniProt P16070).
T1 sequence (P16070 386-428 limits assumed): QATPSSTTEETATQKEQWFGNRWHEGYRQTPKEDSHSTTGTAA
The experiment in a line: Pull-down assay with biotin-labeled peptides. Type of experiment: binding. The settings on record: biotinylated peptide 25 µM, streptavidin beads, immunoblotting. The procedure:
Biotin-labeled peptides were incubated with streptavidin magnetic beads (Bioclone Inc., San Diego, CA) at room temperature for 30-60 min under gentle rotation. MDA-MB231 cells were then lysed using a cell lysis reagent (ThermoFisher Scientific) containing protease inhibitors. The lysates were incubated with the biotinylated peptide (25 µM) and streptavidin bead complexes at room temperature for 30-60 min under gentle rotation. In another set of assays, the recombinant human CD44v6 protein was used instead of the cell lysates. The complexes were pulled down and incubated with an elution buffer containing 2 mM D-biotin (Bioclone Inc.) for 5-10 min, and the eluates were collected and subjected to electrophoresis.

Experiment [2] deals with T2, recombinant human CD44v6-Fc protein (Homo sapiens, UniProt P16070).
T2 sequence (P16070 386-428 limits assumed): T1 sequence (P16070 386-428 limits assumed)
The experiment is described as follows: ELISA of peptide binding to recombinant proteins. The settings on record: 10 µM biotin-labeled peptide, 4 °C, 1 h. The procedure:
(§1) Supplementary Information
Supplementary Materials and Methods […]
peroxidase-conjugated neutravidin (1:10,000 dilution; ThermoFisher Scientific, Waltham, MA) for 30 min at room temperature. Enzymatic activity was detected using a 3,3ʹ,5,5ʹ-tetramethylbenzidine substrate (ThermoFisher Scientific), and the reaction was stopped using 2 M […]
sulfuric acid. […]
Enzyme-linked immunosorbent assay (ELISA) of peptide binding to recombinant proteins ELISA plates were coated overnight with 100 μL of recombinant human CD44v6-Fc and CD44-Fc proteins (R&D Systems, Minneapolis, MN) at a concentration of 1 μg/mL in Tris-buffered saline with 0.05% Tween-20. BSA was used as a control. After coating, plates were incubated with 10 µM biotin-labeled CD44v6-binding peptides at 4 °C for 1 h. After washing, the cells were incubated with horseradish peroxidase-conjugated neutravidin (1:10,000 dilution; ThermoFisher Scientific) for 30 min at room temperature. Detection of enzymatic activity and measurement of absorbance was performed as described above. Relative binding was calculated based on the absorbance, in which the absorbance of BSA was set to 1.

Experiment [3] relates to MDA-MB231 cells. The experiment is described as follows: Transwell cell migration and invasion assays, MDA-MB231. The experiment is classed as cell-based, human. The settings on record: peptide 20 µM, HGF 25 ng/mL, 24 h. The procedure:
Transwell chambers (24-wells) with 8 μm pores were obtained from Corning (Corning, NY). MDA-MB231 and 4T1 cells (1 × 10^6 cells) were harvested, resuspended in 200 μL of DMEM containing CD44v6-binding peptides (20 µM), and then seeded into the upper chamber of the transwell chambers. The lower chamber was filled with 600 μL of DMEM containing 25 ng/mL HGF. After 24 h of incubation, cells that migrated into the reverse side of the transwell membrane were fixed with methanol, stained with crystal violet, and then counted under a light microscope. An average of five visual fields was obtained. For invasion assays, the transwell membrane was pre-coated with 300 µg/mL of Matrigel (Corning).

Experiment [4] concerns MDA-MB231 cells. The experiment is described as follows: Saturation cell binding assay, MDA-MB231. Particulars: biotin-labeled peptide 0-256 µM, 4 °C, 1 h. Also on record: species or system human. The procedure: as §1
Supplementary Materials and Methods
Saturation binding assays to determine the cellular binding affinities of peptides Cells (5 × 10^3 cells per well in a 96-well plate) were incubated with 1% bovine serum albumin (BSA) for 30 min and with different concentrations of biotin-labeled peptides (0, 2, 4, 8, 16, 32, 64, 128, and 256 µM) at 4 °C for 1 h. After washing, the cells were incubated with horseradish peroxidase-conjugated neutravidin (1:10,000 dilution; ThermoFisher Scientific, Waltham, MA) for 30 min at room temperature. Enzymatic activity was detected using a 3,3ʹ,5,5ʹ-tetramethylbenzidine substrate (ThermoFisher Scientific), and the reaction was stopped using 2 M sulfuric acid. The absorbance at 450 nm was measured in each well using a microplate reader (Tecan, Mannedorf, Switzerland). The KD values were then calculated using GraphPad Prism 6 software (GraphPad Inc., La Jolla, CA). […]
10 µM biotin-labeled CD44v6-binding peptides at 4 °C for 1 h. […]
Scientific) for 30 min at room temperature. […]

Experiment [5] deals with T3, CD44v6 on MDA-MB231 cells (Homo sapiens, UniProt P16070).
T3 sequence (P16070 386-428 limits assumed): T1 sequence (P16070 386-428 limits assumed)
The experiment is described as follows: Flow cytometric competition assays with anti-CD44v6 antibody. Type of experiment: cell-based. The settings on record: for peptide binding to cells after pre-treatment with anti-CD44v6 antibody: MDA-MB231, antibody 5 µg/mL 1 h, FITC-labeled peptide 10 µM; for staining of CD44v6 with anti-CD44v6 antibody after pre-treatment with peptide: MDA-MB231, peptide 50 µM 1 h. The procedure:
Cells (1 × 10^5 cells) were harvested and suspended in culture medium containing 1% BSA for 1 h, followed by an incubation with FITC-labeled peptides (25 µM) at 4 °C for 1 h. After washing, the cells were analyzed using a FACSCalibur flow cytometer (BD, Franklin Lakes, NJ). For competition assays, cells were incubated with 5 µg/mL of an anti-human CD44v6 mouse monoclonal antibody (clone no. VFF-18, 1:100 dilution; Abcam, Cambridge, MA) and anti-human CD44 monoclonal antibody (clone no. 156-3C11, 1:100 dilution; ThermoFisher Scientific) for 1 h to compete with peptide binding, followed by an incubation with FITC-labeled peptides (10 µM) before analysis on a flow cytometer (BD). In another set of assays, cells were incubated with peptides (50 µM) for 1 h to compete with antibody binding, followed by an incubation with 5 µg/mL of the anti-human CD44v6 mouse monoclonal antibody for 1 h, The cells were then incubated with an Alexa Fluor 488-labeled goat anti-mouse IgG secondary antibody (Merck) before analysis on a flow cytometer (BD).
On the technique in general: Flow cytometry measures light scatter and fluorescence of single cells or particles in a stream.

Experiment [6] has as its system CD44v6-high cells (MDA-MB231, 4T1, Panc-1) versus CD44v6-low MCF7 cells. The experiment in a line: Immunofluorescence microscopy and flow cytometry of FITC-peptide cell binding. Particulars: FITC-labeled peptide 25 µM, 4 °C, 1 h. The experiment is classed as cell-based. The procedure: Cells were seeded in each well of an 8-well chamber slide at a density of 1 × 10^5 cells per well, incubated overnight, and then treated with 1% BSA at room temperature for 1 h. Subsequently, the cells were incubated with FITC-conjugated peptides (25 µM) at 4 °C for 1 h, blocked with BSA, fixed, and incubated with an anti-human CD44v6 mouse monoclonal antibody (clone no. VFF-7, 1:100 dilution; Santa Cruz Biotechnology, Dallas, TX) or a rabbit anti-CD44v6 polyclonal antibody (1:100 dilution; Merck). The cells were then incubated with an Alexa Fluor 594-labeled goat anti-mouse IgG or goat anti-rabbit IgG secondary antibodies (Merck). After incubation, the cells were counterstained with 4ʹ,6-diamidino-2-phenylindole (DAPI, Sigma-Aldrich, St. Louis, MI), mounted with ProLong antifade reagent (Thermo Fischer Scientific), and observed under a confocal microscope (Zeiss, Jena, Germany).
Cells (1 × 10^5 cells) were harvested and suspended in culture medium containing 1% BSA for 1 h, followed by an incubation with FITC-labeled peptides (25 µM) at 4 °C for 1 h. After washing, the cells were analyzed using a FACSCalibur flow cytometer (BD, Franklin Lakes, NJ). […]

Broadly, the Kd is a measure of binding affinity in units of concentration. Higher therefore signals a looser complex. As for `CC(C)C[C@H](NC(=O)[C@H](CCC(N)=O)NC(=O)[C@H](Cc1c[nH]c2ccccc12)NC(=O)[C@H](CCC(=O)O)NC(=O)[C@H](CC(N)=O)NC(=O)[C@@H](N)CS)C(=O)N[C@@H](CCCCN)C(=O)N[C@@H](CO)C(=O)N[C@@H](CS)C(=O)O` [NEW] (H-CNEWQLKSC-OH; N-terminus and C-terminus assumed), in experiment [1], the “pull-down of CD44v6 and CD44 from cell lysates” value was “selectively pulled down CD44v6 but not CD44”; the “pull-down of c-Met together with CD44v6 from cell lysates” value is recorded as “pulled down only CD44v6”. The “binding to recombinant CD44v6-Fc protein coated on plates compared with CD44-Fc and albumin” value in experiment [2] is recorded as “preferentially bound”. Also, the “HGF-induced cell migration and invasion, MDA-MB231” value in the experiment on MDA-MB231 cells [3] is given as “inhibited”. This compound yielded a Kd in the experiment with MDA-MB231 cells [4] of 18 ± 6 µM. For the same compound, in experiment [5], the “peptide binding to cells after pre-treatment with anti-CD44v6 antibody” value was “significantly inhibited” and the “staining of CD44v6 with anti-CD44v6 antibody after pre-treatment with peptide” value is “inhibited”. In experiment [6], the “cellular binding, CD44v6-high versus CD44v6-low cells” value is reported as “bound selectively to CD44v6-high cells”.
As to `CC[C@H](C)[C@H](NC(=O)[C@@H](NC(=O)[C@H](CC(N)=O)NC(=O)[C@H](CC(C)C)NC(=O)[C@H](CC(N)=O)NC(=O)[C@@H](N)CS)[C@@H](C)O)C(=O)N[C@@H](CC(=O)O)C(=O)N[C@H](C(=O)N[C@@H](CS)C(=O)O)[C@@H](C)O` [NLN] (H-CNLNTIDTC-OH; N-terminus and C-terminus assumed), in experiment [1], the “pull-down of CD44v6 and CD44 from cell lysates” value is reported as “selectively pulled down CD44v6 but not CD44”; the “pull-down of c-Met together with CD44v6 from cell lysates” value is “pulled down both c-Met and CD44v6”. In experiment [2], the “binding to recombinant CD44v6-Fc protein coated on plates compared with CD44-Fc and albumin” value is on record as “preferentially bound”. Also, the “HGF-induced cell migration and invasion, MDA-MB231” value in the experiment on MDA-MB231 cells [3] was “inhibited”. In addition, binding with MDA-MB231 cells [4] was put at a Kd of 12 ± 5 µM. Moreover, in experiment [5], the “peptide binding to cells after pre-treatment with anti-CD44v6 antibody” value was “significantly inhibited” and the “staining of CD44v6 with anti-CD44v6 antibody after pre-treatment with peptide” value is on record as “inhibited”. In addition, the “cellular binding, CD44v6-high versus CD44v6-low cells” value in experiment [6] is reported as “bound selectively to CD44v6-high cells”.
